How the values were obtained:
[1] = target: T1, RAF1 (Homo sapiens, UniProt P04049); experiment: Radioisotope filter activity assay, recombinant kinase; type: biochemical; settings: 10 point dose response, 10 µM ATP
T1 construct: purchased Reaction Biology Corporation
Procedure: (§1) The effect of SAB298 on a panel of 36 recombinant kinases, was screed with the radioisotope filter binding assay employing 10 concentrations of the compound with 10 µM ATP (Reaction Biology Corporation, Malvern, PA). In addition, we tested the endogenous kinome response to SAB298 (0.05 µM, 0.5 µM and 5 µM) in lysates from two melanoma cell lines (YUSIV and YUSIK) employing the KiNativ® platform (ActivX Biosciences Inc., La Jolla, CA). KiNativ® is a robust, high performance mass spectrometry (LC-MS^2) assay that uses biotinylated probes to measure relevant changes in the affinity to the ATP-binding sites of 205 native kinases as a function of cellular context. We also validated SAB298 effect on the activity of SRC-family kinases by probing for phosphorylated Y416, the marker of activated SFKs, with anti-IEDNEpYTAR antibodies (also known as Y419, #2101, Cell Signaling Technology, Beverly, MA). In some cases the cells were incubated overnight with 20 µM proteasome inhibitor MG-132 (CAS 133407-82-6, Millipore Sigma, Burlington, MA) to rescue degradation.
(§2) Supplemntary Table 3: Radioisotope filter activity assay Tests for SAB298 target protein
(§3) *These are results from 10 point dose response test employed with 10 µM ATP. […]
(§4) SRC TRCN0000195339 3ʹUTR […]
(§5) YES TRCN0000001611 CDS […]
(§6) FYN TRCN0000003099 CDS […]
(§7) LY N TRCN0000230901 CDS […]

[2] = target: T2, HCK (Homo sapiens, UniProt P08631); experiment: as above; type: biochemical; settings: 10 point dose response, 10 µM ATP
T2 construct: purchased Reaction Biology Corporation
T2 sequence (P08631 whole entry): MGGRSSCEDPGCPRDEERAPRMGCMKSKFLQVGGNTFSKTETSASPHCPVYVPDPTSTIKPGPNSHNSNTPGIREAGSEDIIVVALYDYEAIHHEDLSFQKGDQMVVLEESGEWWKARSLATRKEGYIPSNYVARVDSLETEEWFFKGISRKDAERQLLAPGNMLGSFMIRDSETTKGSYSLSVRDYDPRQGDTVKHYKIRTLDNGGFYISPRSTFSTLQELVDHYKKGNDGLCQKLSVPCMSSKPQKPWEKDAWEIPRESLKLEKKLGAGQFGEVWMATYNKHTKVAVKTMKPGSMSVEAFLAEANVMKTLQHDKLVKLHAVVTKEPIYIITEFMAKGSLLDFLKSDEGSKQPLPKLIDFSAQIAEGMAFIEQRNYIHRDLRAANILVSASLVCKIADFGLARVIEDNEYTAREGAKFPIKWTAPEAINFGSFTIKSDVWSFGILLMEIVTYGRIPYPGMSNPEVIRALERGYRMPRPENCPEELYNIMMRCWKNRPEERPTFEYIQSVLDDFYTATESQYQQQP
Procedure: as §1, §2, §3, §4, §5, §6, §7

[3] = target: T3, ARAF (Homo sapiens, UniProt P10398); experiment: as above; type: biochemical; settings: 10 point dose response, 10 µM ATP
T3 construct: purchased Reaction Biology Corporation
T3 sequence (P10398 whole entry): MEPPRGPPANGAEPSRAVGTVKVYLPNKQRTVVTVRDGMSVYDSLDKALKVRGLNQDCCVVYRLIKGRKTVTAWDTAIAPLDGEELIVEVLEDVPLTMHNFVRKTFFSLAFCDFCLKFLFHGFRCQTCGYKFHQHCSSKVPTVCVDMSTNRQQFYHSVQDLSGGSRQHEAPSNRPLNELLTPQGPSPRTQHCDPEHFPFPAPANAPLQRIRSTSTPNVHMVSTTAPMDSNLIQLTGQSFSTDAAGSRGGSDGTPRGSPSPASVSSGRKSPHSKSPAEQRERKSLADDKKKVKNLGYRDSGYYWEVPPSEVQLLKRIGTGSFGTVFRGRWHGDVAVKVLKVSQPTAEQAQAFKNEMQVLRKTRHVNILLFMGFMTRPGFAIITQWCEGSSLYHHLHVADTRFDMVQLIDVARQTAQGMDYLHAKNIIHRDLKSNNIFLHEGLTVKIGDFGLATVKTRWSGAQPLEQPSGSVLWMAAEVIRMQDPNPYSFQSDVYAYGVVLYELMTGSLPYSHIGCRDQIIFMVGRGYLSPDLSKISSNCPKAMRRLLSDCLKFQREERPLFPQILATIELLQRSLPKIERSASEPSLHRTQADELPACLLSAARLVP
Procedure: as §1, §2, §3, §4, §5, §6, §7

[4] = target: T4, WEE1 (Homo sapiens, UniProt P30291); experiment: as above; type: biochemical; settings: 10 point dose response, 10 µM ATP
T4 construct: purchased Reaction Biology Corporation
Procedure: as §1, §2, §3, §4, §5, §6, §7

[5] = target: T5, BTK (Homo sapiens, UniProt Q06187); experiment: as above; type: biochemical; settings: 10 point dose response, 10 µM ATP
T5 construct: purchased Reaction Biology Corporation
T5 sequence (Q06187 whole entry): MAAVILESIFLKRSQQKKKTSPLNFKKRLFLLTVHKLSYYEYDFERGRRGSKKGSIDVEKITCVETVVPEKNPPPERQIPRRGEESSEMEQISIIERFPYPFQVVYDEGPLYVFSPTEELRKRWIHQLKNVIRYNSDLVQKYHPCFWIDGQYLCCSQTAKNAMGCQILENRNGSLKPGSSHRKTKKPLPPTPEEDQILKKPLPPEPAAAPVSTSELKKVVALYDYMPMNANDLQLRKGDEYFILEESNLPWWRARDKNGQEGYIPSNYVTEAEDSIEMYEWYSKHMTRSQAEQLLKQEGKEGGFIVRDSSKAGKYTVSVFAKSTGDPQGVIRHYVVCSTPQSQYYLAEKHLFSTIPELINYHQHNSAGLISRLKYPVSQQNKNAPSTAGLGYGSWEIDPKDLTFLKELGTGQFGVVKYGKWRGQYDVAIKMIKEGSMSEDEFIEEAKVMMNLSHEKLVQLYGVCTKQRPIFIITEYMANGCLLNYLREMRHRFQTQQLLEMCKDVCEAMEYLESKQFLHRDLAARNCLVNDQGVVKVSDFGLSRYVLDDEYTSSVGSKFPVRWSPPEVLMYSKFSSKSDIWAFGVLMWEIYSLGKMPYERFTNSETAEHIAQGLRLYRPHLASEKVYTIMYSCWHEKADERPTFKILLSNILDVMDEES
Procedure: as §1, §2, §3, §4, §5, §6, §7

[6] = target: T6, FLT3 (Homo sapiens, UniProt P36888); experiment: as above; type: biochemical; settings: 10 point dose response, 10 µM ATP
T6 construct: purchased Reaction Biology Corporation
Procedure: as §1, §2, §3, §4, §5, §6, §7

[7] = target: T7, BLK (Homo sapiens, UniProt P51451); experiment: as above; type: biochemical; settings: 10 point dose response, 10 µM ATP
T7 construct: purchased Reaction Biology Corporation
T7 sequence (P51451 whole entry): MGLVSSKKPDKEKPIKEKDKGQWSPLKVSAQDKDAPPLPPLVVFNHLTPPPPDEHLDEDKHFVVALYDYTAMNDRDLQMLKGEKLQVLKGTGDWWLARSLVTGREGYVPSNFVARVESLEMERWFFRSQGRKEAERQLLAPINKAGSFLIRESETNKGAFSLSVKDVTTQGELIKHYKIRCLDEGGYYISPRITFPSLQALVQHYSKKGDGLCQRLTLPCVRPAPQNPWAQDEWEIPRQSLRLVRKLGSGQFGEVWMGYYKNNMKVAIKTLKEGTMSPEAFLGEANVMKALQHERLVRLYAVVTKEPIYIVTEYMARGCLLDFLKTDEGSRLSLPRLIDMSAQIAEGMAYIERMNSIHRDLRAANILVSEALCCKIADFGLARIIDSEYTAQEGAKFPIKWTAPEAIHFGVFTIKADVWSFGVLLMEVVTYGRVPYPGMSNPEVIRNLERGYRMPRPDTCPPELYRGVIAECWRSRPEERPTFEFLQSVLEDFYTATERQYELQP
Procedure: as §1, §2, §3, §4, §5, §6, §7

[8] = target: T8, ABL1 (Homo sapiens, UniProt P00519); experiment: as above; type: biochemical; settings: 10 point dose response, 10 µM ATP
T8 construct: purchased Reaction Biology Corporation
Procedure: as §1, §2, §3, §4, §5, §6, §7

[9] = target: T9, FYN (Homo sapiens, UniProt P06241); experiment: as above; type: biochemical; settings: 10 point dose response, 10 µM ATP
T9 construct: purchased Reaction Biology Corporation
Procedure: as §1, §2, §3, §4, §5, §6, §7

[10] = target: T10, BRAF (Homo sapiens, UniProt P15056); experiment: as above; type: biochemical; settings: 10 point dose response, 10 µM ATP
T10 construct: purchased Reaction Biology Corporation
T10 sequence (P15056 whole entry): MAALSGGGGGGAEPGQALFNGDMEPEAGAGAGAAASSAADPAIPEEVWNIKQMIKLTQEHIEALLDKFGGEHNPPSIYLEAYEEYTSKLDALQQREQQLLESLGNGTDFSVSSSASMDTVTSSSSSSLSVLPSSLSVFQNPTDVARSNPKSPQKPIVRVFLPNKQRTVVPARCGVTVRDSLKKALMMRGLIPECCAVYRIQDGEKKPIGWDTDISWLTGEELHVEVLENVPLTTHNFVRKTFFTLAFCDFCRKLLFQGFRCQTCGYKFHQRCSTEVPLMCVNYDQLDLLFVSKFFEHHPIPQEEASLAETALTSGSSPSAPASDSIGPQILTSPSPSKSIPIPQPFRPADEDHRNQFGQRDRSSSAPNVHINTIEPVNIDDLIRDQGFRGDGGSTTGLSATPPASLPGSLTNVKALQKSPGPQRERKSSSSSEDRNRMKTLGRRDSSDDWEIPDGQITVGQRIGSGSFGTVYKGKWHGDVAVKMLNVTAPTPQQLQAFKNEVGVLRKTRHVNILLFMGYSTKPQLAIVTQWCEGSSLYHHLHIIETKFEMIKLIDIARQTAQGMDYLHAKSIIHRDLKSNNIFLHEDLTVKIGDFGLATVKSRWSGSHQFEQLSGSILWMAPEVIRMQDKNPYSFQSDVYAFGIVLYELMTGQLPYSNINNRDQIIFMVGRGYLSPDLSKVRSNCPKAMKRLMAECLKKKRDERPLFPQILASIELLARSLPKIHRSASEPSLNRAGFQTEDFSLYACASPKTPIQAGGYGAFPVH
Procedure: as §1, §2, §3, §4, §5, §6, §7

[11] = target: T11, FGR (Homo sapiens, UniProt P09769); experiment: as above; type: biochemical; settings: 10 point dose response, 10 µM ATP
T11 construct: purchased Reaction Biology Corporation
Procedure: as §1, §2, §3, §4, §5, §6, §7

[12] = target: T12, CDK4/Cyclin D1 (Homo sapiens, UniProt P11802); experiment: as above; type: biochemical; settings: 10 point dose response, 10 µM ATP
T12 construct: purchased Reaction Biology Corporation
T12 sequence (P11802 whole entry): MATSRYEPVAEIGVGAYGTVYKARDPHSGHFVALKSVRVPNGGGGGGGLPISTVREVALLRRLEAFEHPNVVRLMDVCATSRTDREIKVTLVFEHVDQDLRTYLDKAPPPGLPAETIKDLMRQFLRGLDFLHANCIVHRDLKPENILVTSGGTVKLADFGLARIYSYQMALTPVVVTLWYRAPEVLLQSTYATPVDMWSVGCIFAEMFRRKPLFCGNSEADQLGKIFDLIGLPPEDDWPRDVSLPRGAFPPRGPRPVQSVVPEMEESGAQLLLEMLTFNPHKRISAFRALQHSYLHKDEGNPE
T12 sequence (P24385 whole entry partner): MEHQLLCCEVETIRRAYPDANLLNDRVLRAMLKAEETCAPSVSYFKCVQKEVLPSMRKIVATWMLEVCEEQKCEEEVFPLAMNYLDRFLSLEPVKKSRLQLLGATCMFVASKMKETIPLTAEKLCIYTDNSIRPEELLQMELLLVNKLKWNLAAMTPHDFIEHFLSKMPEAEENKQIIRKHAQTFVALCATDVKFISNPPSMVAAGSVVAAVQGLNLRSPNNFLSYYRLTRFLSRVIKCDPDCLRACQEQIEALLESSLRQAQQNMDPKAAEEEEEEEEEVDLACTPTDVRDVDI
Procedure: as §1, §2, §3, §4, §5, §6, §7

[13] = target: T13, BRK (Homo sapiens, UniProt Q13882); experiment: as above; type: biochemical; settings: 10 point dose response, 10 µM ATP
T13 construct: purchased Reaction Biology Corporation
T13 sequence (Q13882 whole entry): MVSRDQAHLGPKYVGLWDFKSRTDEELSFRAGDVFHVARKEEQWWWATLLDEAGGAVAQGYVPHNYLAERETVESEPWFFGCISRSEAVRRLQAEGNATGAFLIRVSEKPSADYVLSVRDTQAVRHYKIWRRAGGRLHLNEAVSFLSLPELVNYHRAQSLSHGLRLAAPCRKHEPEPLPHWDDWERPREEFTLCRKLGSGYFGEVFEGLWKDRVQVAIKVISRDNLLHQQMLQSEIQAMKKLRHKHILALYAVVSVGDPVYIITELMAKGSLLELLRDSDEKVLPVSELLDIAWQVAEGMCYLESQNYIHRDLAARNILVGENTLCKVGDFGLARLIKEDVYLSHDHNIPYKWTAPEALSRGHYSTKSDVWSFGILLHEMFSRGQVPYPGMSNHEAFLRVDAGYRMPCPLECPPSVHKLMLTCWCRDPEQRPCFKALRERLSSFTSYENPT
Procedure: as §1, §2, §3, §4, §5, §6, §7

[14] = target: T14, IGF1R (Homo sapiens, UniProt P08069); experiment: as above; type: biochemical; settings: 10 point dose response, 10 µM ATP
T14 construct: purchased Reaction Biology Corporation
Procedure: as §1, §2, §3, §4, §5, §6, §7

[15] = test system: phospho-PP2A Y307; experiment: Western blot, inactivated PP2A; type: cell-based, human; settings: YUSIK and YUSIV melanoma cells
Procedure: We used standard techniques to identify changes in intracellular signaling in response to various treatments. Briefly, melanoma cells were incubated with test compounds, using DMSO as a control, collected by scraping on ice, and lysed in RIPA buffer supplemented with protease and phosphatase inhibitors (MA #78428, and #78425, respectively, Thermo Fisher Scientific, Waltham, MA). Protein concentrations were measured with the BioRad kit (Bio-Rad Laboratories, Hercules, CA), SDS sample buffer was added, extracts were heated at 95°C, sonicated and centrifuged. Cell extracts (20 µg/lane) were fractionated in 3%–8% or 4–12 % tris-acetate gel (NP0006, NuPAGE Life Technologies). […]

T1 sequence (P04049 whole entry): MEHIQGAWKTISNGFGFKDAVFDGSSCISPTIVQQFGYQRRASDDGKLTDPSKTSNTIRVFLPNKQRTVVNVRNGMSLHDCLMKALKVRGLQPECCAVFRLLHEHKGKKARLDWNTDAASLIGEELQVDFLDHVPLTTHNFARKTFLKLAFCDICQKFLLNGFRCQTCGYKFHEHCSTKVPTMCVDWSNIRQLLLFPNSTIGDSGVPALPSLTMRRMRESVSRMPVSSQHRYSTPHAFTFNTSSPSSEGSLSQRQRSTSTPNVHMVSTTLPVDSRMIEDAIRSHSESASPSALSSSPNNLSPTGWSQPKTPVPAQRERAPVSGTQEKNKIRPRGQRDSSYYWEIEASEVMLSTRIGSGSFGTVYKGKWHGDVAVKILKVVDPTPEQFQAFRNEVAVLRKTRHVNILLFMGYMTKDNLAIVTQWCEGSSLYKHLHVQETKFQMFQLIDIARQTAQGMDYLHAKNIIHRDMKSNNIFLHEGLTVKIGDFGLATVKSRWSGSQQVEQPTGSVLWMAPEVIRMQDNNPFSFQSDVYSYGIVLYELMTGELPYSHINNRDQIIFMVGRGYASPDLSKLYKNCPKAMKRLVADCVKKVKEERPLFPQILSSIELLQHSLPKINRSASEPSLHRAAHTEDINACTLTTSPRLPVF

**Q.** How did the IC50 [1] turn out when Nc1ncnc2c1c(-c1ccc(Oc3ccccc3)cc1)nn2C[C@@H]1SSC[C@@H]1O [SAB298, (3S, 4S)-3-((4-amino-3-(4-phenoxyphenyl)-1H-pyrazolo[3,4-d]pyrimidin-1-yl)methyl)-1,2-dithiolan-4-ol] was run?
**A.** 2800 nM

**Q.** And the IC50 [2]?
**A.** 16.3 nM

**Q.** What about the IC50 [3] of the same compound?
**A.** 1200 nM

**Q.** And the IC50 [4]?
**A.** > 10000 nM

**Q.** And the IC50 [5]?
**A.** 78 nM

**Q.** And the IC50 [6]?
**A.** 71 nM

**Q.** What about the IC50 [7] of the same compound?
**A.** 6.5 nM

**Q.** And the IC50 [8]?
**A.** 4140 nM

**Q.** What about the IC50 [9] of the same compound?
**A.** 21.7 nM

**Q.** What about the IC50 [10] of the same compound?
**A.** > 10000 nM

**Q.** What about the IC50 [11] of the same compound?
**A.** 7.8 nM

**Q.** What about the IC50 [12] of the same compound?
**A.** > 10000 nM

**Q.** What about the IC50 [13] of the same compound?
**A.** 35.5 nM

**Q.** What about the IC50 [14] of the same compound?
**A.** > 10000 nM

**Q.** What about the “inactivated PP2A (phospho-PP2A Y307) level” value [15] of the same compound?
**A.** increase in the levels of inactivated PP2A

Source: PMC6481345, “A novel anti-melanoma SRC-family kinase inhibitor” (Oncotarget, 2019)
